Values after ≈ are worked out from the molar mass of the structure shown. Like-named read-outs stand apart in the source and are kept apart here.
How the values were obtained:
[1] = cited from earlier work; for solubility: in water, stated in text without method; for solubility in water (in words): qualitative statement (b7: according to Merck Index); for water solubility relative to aglyconic form of isoflavones: derivatives reported in several studies
[2] = Solubility of isoflavone phosphate conjugates and aglycones in DI water (25° C.); format: physicochemical; settings: for solubility relative to genistein and daidzein: 25° C. water, phosphate vs aglycone; for Solubility enhancement ratio: phosphate conjugate vs aglycone
Excerpt: This can increase the application of isoflavones in pharmaceuticals, food, and cosmetics.

[3] = DI water, 25° C., read-out: Water solubility

Structure (SMILES)	solubility [1] [µg/mL]	solubility in water (in words) [1]	water solubility relative to aglyconic form of isoflavones [1]	further results
O=c1c(-c2ccc(O)cc2)coc2cc(O)cc(O)c12 [Genistein, genistein]	0.8 (≈ 2.96 µM)	practically insoluble in water	–	solubility [2, 3]: 0.00082 mg/mL (≈ 3.03 µM)
O=c1c(-c2ccc(O)cc2)coc2cc(OP(=O)(O)O)ccc12 [Daidzein-7-O-phosphate, daidzein-7-O-phosphate]	–	–	–	solubility relative to genistein and daidzein [2]: ten million times higher; solubility [2, 3]: 179 mg/mL (≈ 536000 µM); Solubility enhancement ratio ([2]; DI water, 25° C.): 1.3 × 10^5
O=c1c(-c2ccc(O)cc2)coc2cc(OS(=O)(=O)O)ccc12 [daidzein-7-O-sulfate]	–	–	higher water solubility	–
O=c1c(-c2ccc(O)cc2)coc2cc(O)c(O)c(O)c12 [6-hydroxy genistein]	–	–	higher water solubility	–
O=c1c(-c2ccc(O)cc2)coc2cc(O)ccc12 [Daidzein, daidzein]	8.2 (≈ 32.3 µM)	practically insoluble in water	–	solubility ([2]; 25 °C, water): 0.00136 mg/mL (≈ 5.35 µM)
O=c1c(O)c(-c2ccc(O)c(O)c2)oc2cc(O)cc(O)c12 [quercetin]	–	barely insoluble in water	–	–
COc1ccc([C@@H]2CC(=O)c3c(O)cc(O)cc3O2)cc1O [hesperetin]	1.4 (≈ 4.63 µM)	–	–	–
O=c1c(O)c(-c2ccc(O)cc2)oc2cc(O)cc(O)c12 [Kaempferol, kaempferol]	–	barely insoluble in water	–	–
O=C1C[C@@H](c2ccc(O)cc2)Oc2cc(O)cc(O)c21 [Naringenin, naringenin]	45 (≈ 165 µM)	–	–	–
O=c1c(-c2ccc(O)cc2)coc2cc(OP(=O)(O)O)cc(O)c12 [Genistein-7-O-phosphate, genistein-7-O-phosphate]	–	–	–	solubility relative to genistein and daidzein [2]: ten million times higher; solubility [2, 3]: 100 mg/mL (≈ 286000 µM); Solubility enhancement ratio ([2]; DI water, 25° C.): 1.2 × 10^5
O=c1c(-c2ccc(O)cc2O)coc2cc(O)cc(O)c12 [2′-hydroxy genistein]	–	–	higher water solubility	–
O=c1c(-c2ccc(O)cc2)coc2c(O)c(O)cc(O)c12 [8-hydroxy genistein]	–	–	higher water solubility	–

Source: patent publication US10421768B2, “Method of biotransformation of benzopyrone compounds into the corresponding phosphate-conjugated derivatives” (National Taiwan University, priority 2016, dated 2019)
